Source: the supplement of paper PMC10307832

Tests used:
Assay in all cases: relative viability (nuclei count vs DMSO), 5 days (fraction); higher = more cells survive
[1] = compound: COc1cc2c(Oc3ccc4[nH]c(C)cc4c3F)ncnc2cc1OCCCN1CCCC1 [Cediranib] + COc1cc2c(Oc3ccc(NC(=O)C4(C(=O)Nc5ccc(F)cc5)CC4)cc3F)ccnc2cc1OCCCN1CCOCC1 [Foretinib] (partner 0.25 µM)
Summary of the method: (§1)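 Relative viability was taken as the ratio of nuclei in treated wells to nuclei in vehicle wells. Lung cancer cell lines in 1536-well plates received compounds by pin tool one day after seeding, either one drug alone or a fixed anchor-drug dose plus five library-drug doses (not always all listed) in √10 steps. Nuclei were counted on 4× images after 5 days of treatment, and values are medians of duplicate plates.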

[2] = compound: Nc1ncn([C@H]2C[C@H](O)[C@@H](CO)O2)c(=O)n1 [Decitabine] + Cc1nc(Nc2ncc(C(=O)Nc3c(C)cccc3Cl)s2)cc(N2CCN(CCO)CC2)n1 [Dasatinib] (partner 0.075 µM)
Summary of the method: as §1

[3] = compound: Nc1ncn([C@H]2C[C@H](O)[C@@H](CO)O2)c(=O)n1 [Decitabine] + O=C(c1cc(Cc2n[nH]c(=O)c3ccccc23)ccc1F)N1CCN(C(=O)C2CC2)CC1 [Olaparib] (partner 8 µM)
Summary of the method: as §1

[4] = compound: O=C(C[C@H]1NCCC[C@@H]1O)Cn1cnc2cc(Br)c(Cl)cc2c1=O (racemic) [Halofuginone] + CC1(C)CCC(c2ccc(Cl)cc2)=C(CN2CCN(c3ccc(C(=O)NS(=O)(=O)c4ccc(N[C@H](CCN5CCOCC5)CSc5ccccc5)c(S(=O)(=O)C(F)(F)F)c4)cc3)CC2)C1 [Navitoclax] (partner 0.5 µM)
Summary of the method: as §1

Cell Line | relative viability ([1]; first compound 0.04 µM) | relative viability ([1]; first compound 0.1265 µM) | relative viability ([1]; first compound 0.4 µM) | relative viability ([1]; first compound 1.265 µM) | relative viability ([1]; first compound 4 µM) | relative viability ([2]; first compound 0.04 µM) | relative viability ([2]; first compound 0.1265 µM) | relative viability ([2]; first compound 0.4 µM) | relative viability ([2]; first compound 4 µM) | relative viability ([3]; first compound 0.04 µM) | relative viability ([3]; first compound 0.1265 µM) | relative viability ([3]; first compound 0.4 µM) | relative viability ([3]; first compound 4 µM) | relative viability ([4]; first compound 0.001 µM) | relative viability ([4]; first compound 0.003162 µM) | relative viability ([4]; first compound 0.01 µM) | relative viability ([4]; first compound 0.03162 µM) | relative viability ([4]; first compound 0.1 µM) | relative viability ([3]; first compound 1.265 µM) | relative viability ([2]; first compound 1.265 µM)
201T | 1.28 | 1.57 | 1.03 | 1.02 | 0.754 | 0.567 | 0.595 | 0.578 | 0.517 | 0.555 | 0.494 | 0.406 | 0.781 | 1.22 | 1.15 | 1.24 | 1.13 | 1.28 |  | 
A549 | 0.903 | 1.07 | 0.858 | 0.975 | 0.899 |  |  |  |  | 0.15 | 0.112 | 0.049 | 0.0404 | 1.33 | 1.27 | 1.02 | 0.676 | 0.0879 | 0.0246 | 
A-427 | 1.12 |  | 0.948 | 0.925 | 0.942 | 0.51 | 0.341 | 0.214 | 0.206 | 0.474 | 0.443 | 0.281 | 0.217 | 1.08 | 0.984 | 0.903 | 0.898 | 0.946 | 0.248 | 0.196
ABC-1 | 1.17 | 1.2 | 1.04 |  | 0.879 | 0.451 | 0.553 | 0.588 | 0.421 |  | 0.616 | 0.77 | 0.573 |  |  |  |  |  | 0.473 | 0.416
Calu-6 | 0.921 | 0.944 | 0.857 | 0.863 | 0.911 |  |  |  |  | 0.234 | 0.285 | 0.182 | 0.14 | 0.896 | 0.956 | 0.884 | 0.258 | 0.092 | 0.166 | 
EBC-1 | 0.109 | 0.107 | 0.103 | 0.104 | 0.0908 |  |  |  |  | 0.318 | 0.197 | 0.187 | 0.18 | 0.535 | 0.35 | 0.274 | 0.244 | 0.109 | 0.157 | 
HCC-44 |  |  |  |  |  |  |  |  |  | 0.808 | 0.738 | 0.627 | 0.757 | 0.949 | 1.02 | 0.968 | 1.02 | 0.568 | 0.739 | 
IA-LM | 1.16 | 1.32 | 1.07 | 1.26 | 1.33 |  |  |  |  | 0.288 | 0.197 | 0.139 | 0.129 | 0.864 | 0.961 | 0.702 | 0.572 | 0.0557 | 0.129 | 
LCLC-103H | 0.819 | 0.964 | 0.686 | 0.823 | 0.832 | 0.507 | 0.57 | 0.457 | 0.374 | 0.688 | 0.69 | 0.498 | 0.742 |  |  |  |  |  | 0.491 | 0.337
NCI-H358 | 0.712 | 0.809 | 0.677 | 0.616 | 0.763 | 0.255 | 0.203 | 0.216 | 0.153 | 0.27 | 0.182 | 0.165 | 0.106 |  |  |  |  |  | 0.1 | 0.137
NCI-H522 |  |  |  |  |  | 1.02 | 0.748 | 0.607 | 0.678 | 0.544 | 0.564 | 0.544 | 0.47 |  |  |  |  |  | 0.548 | 0.632
NCI-H650 | 1.03 | 0.944 | 1 | 1.09 | 1.02 | 0.422 | 0.443 | 0.357 | 0.275 | 0.196 | 0.198 | 0.203 | 0.152 |  |  |  |  |  | 0.123 | 0.344
NCI-H661 | 1.04 | 0.971 | 0.956 | 0.978 | 1.11 | 0.679 | 0.629 | 0.475 | 0.347 | 0.56 | 0.459 | 0.409 | 0.338 |  |  |  |  |  | 0.345 | 0.305
NCI-H1299 | 1.1 | 1.05 | 1.13 | 1.1 | 1.15 |  |  |  |  | 0.963 | 0.962 | 0.884 | 0.578 | 1.1 | 1.05 | 1.05 | 1.02 | 0.964 | 0.655 | 
NCI-H1563 | 0.976 | 1.09 | 0.908 | 0.958 | 0.936 | 0.447 | 0.462 | 0.584 | 0.499 |  |  |  |  |  |  |  |  |  |  | 0.485
NCI-H1623 | 0.974 | 0.59 | 0.793 | 0.861 | 0.805 | 0.464 | 0.494 | 0.461 | 0.514 |  |  |  |  |  |  |  |  |  |  | 0.467
NCI-H1648 |  |  |  |  |  |  |  |  |  | 0.679 | 0.516 | 0.484 | 0.301 |  |  |  |  |  | 0.424 | 
NCI-H1703 | 0.468 | 0.37 | 0.247 | 0.33 | 0.337 |  |  |  |  | 0.21 | 0.21 | 0.287 | 0.166 | 1.46 | 1.04 | 1.08 | 0.765 | 0.194 | 0.145 | 
NCI-H1792 |  |  |  |  |  | 0.835 | 0.86 | 0.861 | 0.558 | 0.211 | 0.288 | 0.148 | 0.116 | 0.557 | 0.671 | 0.783 | 0.664 | 0.654 | 0.0819 | 0.677
NCI-H2342 | 1.14 | 1.07 | 0.927 | 1.06 | 1.12 | 0.329 | 0.365 | 0.308 | 0.303 | 0.539 | 0.368 | 0.433 | 0.249 |  |  |  |  |  | 0.351 | 0.295
SW 900 | 0.535 | 0.877 | 0.878 | 0.98 | 1.18 | 0.35 | 0.405 | 0.387 | 0.163 | 0.563 | 0.365 | 0.329 | 0.208 |  |  |  |  |  | 0.228 | 0.292
